The results in this text go back to patent US4438136A, “Prostaglandins” (National Research Development Corporation, priority 1979, dated 1984).

The target in assay [1] is T1, Human Platelets (Homo sapiens, UniProt P21731).
T1 construct: Platelet-rich plasma is obtained from fresh, citrated human blood; endogenous in cells; host or cells: human platelets (platelet-rich plasma from citrated blood)
T1 sequence (P21731 1-343): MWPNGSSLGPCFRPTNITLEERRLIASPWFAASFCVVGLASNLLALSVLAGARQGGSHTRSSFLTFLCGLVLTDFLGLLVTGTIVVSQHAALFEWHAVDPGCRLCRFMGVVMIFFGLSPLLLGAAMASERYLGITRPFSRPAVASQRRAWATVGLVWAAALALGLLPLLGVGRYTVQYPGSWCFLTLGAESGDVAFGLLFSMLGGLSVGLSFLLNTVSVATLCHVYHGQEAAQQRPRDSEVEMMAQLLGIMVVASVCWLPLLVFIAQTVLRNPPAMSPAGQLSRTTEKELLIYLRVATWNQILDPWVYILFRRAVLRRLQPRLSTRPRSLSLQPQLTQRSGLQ
Nature of the assay: Human Platelet System: antagonism of platelet aggregation induced by 11,9-(epoxymethano) PGH2. It is filed as cell-based. To be noted: for Kb: vs 11,9-epoxymethano PGH2 (1×10^-7 to 5×10^-7 M), compound added 5 minutes before, Gaddum-Schild, read-out: AFFINITY CONSTANTS (KB) Human Platelets (converted); for inhibition of aggregatory activity of 11,9-(epoxymethano) PGH2 / antagonism in platelet test: human platelets in vitro, in words. From the text: (§1) It is believed that such inhibition is the result of the compounds being thromboxane antagonists and the activity of the compounds is for convenience hereinafter discussed in these terms. […] The related compounds described and claimed in our copending application Ser. No. 431,554 filed Sept. […] Structural features which tend to endow these compounds with a more pure antagonist form of activity are described in that application. It has been found, however, that the compounds of the present invention generally show little tendency to deviate from pure antagonist activity. Activity has also been observed on compounds according to the present invention on guinea pigs tracheal muscle.
(§2) Various of the compounds described in Examples 1 to 3 are tested for biological activity in the human platelet and rabbit aorta systems.
Platelet-rich plasma is obtained from fresh, citrated human blood. Addition of the 11,9-epoxymethano analogue of PGH2 (1×10^-7 to 5×10^-7 M) causes immediate aggregation recorded as an increase in light transmission (600 nm). In a second experiment the individual compounds are added 5 minutes previously to addition of the PGH2 analogue. The dose of the PGH2 analogue added is then increased to a level which gives a similar response to that obtained in the absence of antogonist. The affinity constant, KB, for the compound is calculated according to the Gaddum-Schild Equation (based on Law of Mass Action).
(§3) [B]=molar concentration of compound

The target in a further assay is T2, Rabbit Aorta (Oryctolagus cuniculus, UniProt Q6WQI8).
T2 construct: contraction by 11,9-(epoxymethano)PGH2 (U-46619)
T2 sequence (Q6WQI8 1-233): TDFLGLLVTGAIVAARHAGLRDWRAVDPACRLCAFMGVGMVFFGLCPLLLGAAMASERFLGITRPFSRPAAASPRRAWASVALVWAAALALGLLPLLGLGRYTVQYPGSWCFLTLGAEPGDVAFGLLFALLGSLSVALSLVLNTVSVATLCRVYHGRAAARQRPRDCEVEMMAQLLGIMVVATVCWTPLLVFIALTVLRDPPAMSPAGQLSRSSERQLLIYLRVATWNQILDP
Nature of the assay: Rabbit Aorta System: antagonism of contraction of aorta strips induced by 11,9-(epoxymethano) PGH2. To be noted: for Kb: read-out: AFFINITY CONSTANTS (KB) Rabbit Aorta (converted); for antagonist/agonist character in rabbit aorta strip test: in words. It is filed as cell-based.
From the text: as §1, §2, §3
Spiral strips of thoracic aorta are suspended in Kreb's-Henseleit solution and aerated with 95% O2 /5% CO2 at 37° C. Tension changes are recorded with a Grass FTO3 force transducer. Initially, cumulative dose response curves to 11,9-(epoxymethano) PGH2 (2×10^-9, 1×10^-8, 5×10^-8 and 2.5×10^-7 M) are obtained. In a second experiment the individual compounds are added 30 mins previous to the addition of the series of agonist doses. Affinity constants are calculated as above.

The test system of assay [2] is Human Platelets. Nature of the assay: Antagonism of ADP aggregatory action on platelets. It is filed as cell-based.
The test system of a further assay is platelet. Nature of the assay: Block of aggregatory action of arachidonic acid on platelets. It counts as cell-based, human. The following applies: in words.
In a further assay the test system is α-adrenoceptors. Nature of the assay: Block of contractile action of noradrenaline (α-adrenoceptors). The following applies: in words. It is filed as cell-based, rabbit.
[3] abbreviates: vs 11,9-(epoxymethano) PGH2, compound added 30 mins before, Gaddum-Schild.

What is called Kb is the affinity of an antagonist, worked out from how it opposes an agonist. On to `CN(C)c1ccc(C(=O)NN=C[C@H]2[C@@H]3CC[C@@H](C3)[C@@H]2C/C=C\CCCC(=O)O)cc1` (relative stereo), for which the Kb on Human Platelets [1] is 10000 nM. For the same compound, at Rabbit Aorta (setting [3]), the “AFFINITY CONSTANTS (KB) Rabbit Aorta” value is under 2.5e-05 L/mol.
Regarding `COc1ccc(C(=O)NN=C[C@H]2[C@@H]3CC[C@@H](C3)[C@@H]2C/C=C\CCCC(=O)O)cc1` (relative stereo), the Kb on Rabbit Aorta (setting [3]) was 5000 nM.
Same read-out and setting: for `O=C(O)CCC/C=C\C[C@H]1[C@H]2CC[C@H](C2)[C@@H]1C=NNC(=O)Cc1ccccc1` (relative stereo) the value was 1490 nM.
On to `O=C(O)CCC/C=C\C[C@H]1[C@H]2CC[C@H](C2)[C@@H]1C=NNC(=O)C(c1ccccc1)c1ccccc1` (relative stereo), for which the antagonist equilibrium constant (Kb) is 1390 nM at Human Platelets [1]; 256 nM on Rabbit Aorta (setting [3]); 8330 nM with Human Platelets [2] (antagonism of ADP, table head gives liters/mole, 5 min). Also, the “antagonism of ADP” value in the assay with Human Platelets [2] (in words) is listed as “Slight antagonism of ADP”.
For the compound `O=C(O)CCC/C=C\C[C@H]1[C@H]2CC[C@H](C2)[C@@H]1C=NNC(=O)CC(c1ccccc1)c1ccccc1` (relative stereo), the Kb at Human Platelets [1] is 500 nM; at Rabbit Aorta (setting [3]), 1520 nM.
The matching figures for `O=C(O)CCC/C=C\C[C@H]1[C@H]2CC[C@H](C2)[C@@H]1C=NNC(=O)COc1ccccc1` (relative stereo): 19200 nM and 2700 nM.
In the case of `O=C(O)CCCCCC[C@H]1[C@H]2CC[C@H](C2)[C@@H]1C=NNC(=O)Nc1ccccc1` (relative stereo), the antagonist dissociation constant (Kb) on Human Platelets [1] is 1450 nM; at Rabbit Aorta (setting [3]) it was 1200 nM.
In the case of `O=C(O)CCC/C=C\C[C@H]1[C@H]2CC[C@H](C2)[C@@H]1C=NNC(=O)c1ccc(F)cc1` (relative stereo) [Example 1, 5-endo-(6'-Caboxyhex-2'Z-enyl)-6-exo-(N-p-fluorobenzoylhydrazonomethyl)-bicyclo[2,2,1]heptane], the “inhibition of aggregatory activity of 11,9-(epoxymethano) PGH2 / antagonism in platelet test” value against Human Platelets [1] is listed as “antagonists in the platelet test”. The “antagonist/agonist character in rabbit aorta strip test” value on Rabbit Aorta is “pure antagonists in the rabbit aorta strip test”. For the same compound, the “block of aggregatory action of arachidonic acid” value in the assay with platelet was “block the aggregatory action of archidonic acid”. In addition, the “block of contractile action of noradrenaline” value with α-adrenoceptors is given as “do not block the contractile action of noradrenaline”.
In the same order, the values of `O=C(O)CCC/C=C\C[C@H]1[C@H]2CC[C@H](C2)[C@@H]1C=NNC(=O)Nc1ccccc1` (relative stereo) [Example 3, 5-endo-(6'-carboxyhex-2'Z-enyl)-6-exo-[N-(phenylcarbamoyl)-hydrazonomethyl]-bicyclo[2,2,1]heptane] are “antagonists in the platelet test”, “pure antagonists in the rabbit aorta strip test”, “block the aggregatory action of archidonic acid” and “do not block the contractile action of noradrenaline”.
Consider `O=C(O)CCC/C=C\C[C@H]1[C@H]2CC[C@H](C2)[C@@H]1C=NNC(=O)c1ccc(F)cc1` (relative stereo) [drawing 24], for which the Kb was 4760 nM at Human Platelets [1] and 1280 nM on Rabbit Aorta (setting [3]).
In the same order, the values of `O=C(O)CCC/C=C\C[C@H]1[C@H]2CC[C@H](C2)[C@@H]1C=NNC(=O)Nc1ccccc1` (relative stereo) [drawing 31] are 1430 nM and 769 nM.
